Results as given in PubChem BioAssay AID330 (DTP/NCI, 2004).
Where “and” joins values, the source holds several entries; their conditions need not be identical. Equal entries are not always repeated. Inconclusive results and toxic doses are left out. How the source made its calls: active means survival T/C of 150% or more; inactive means T/C below 125% in these data.

System: P388 leukemia ip, CD2F1 mice, survival T/C
Assay: NCI In Vivo Anticancer Drug Screen. Data for tumor model P388 Leukemia (intraperitoneal) in CD2F1 (CDF1) mice
Conditions: endpoint: median survival time, higher = longer survival
Experimental: The antitumor activity of compounds was measured in mice bearing transplantable tumors. Survival or tumor size were measured and the results are expressed as the measurement made in the treated group (T) divided by the measurement made in the vehicle treated control group (C). The tumor model used in this assay is P388 Leukemia (intraperitoneal) in CD2F1 (CDF1) mice

[1] = dose: 25.0 mg/kg/injection, schedule: Q01DX005 (ip), vehicle: Klucel (hydroxypropylcellulose) (HPC)
[2] = dose: 50.0 mg/kg/injection, schedule: Q01DX005 (ip), vehicle: Klucel (hydroxypropylcellulose) (HPC)
[3] = dose: 50.0 mg/kg/injection, schedule: Q01DX009 (ip), vehicle: saline with Tween-80
[4] = dose: 60.0 mg/kg/injection, schedule: Q01DX005 (ip), vehicle: saline with Tween-80
[5] = dose: 120.0 mg/kg/injection, schedule: Q01DX005 (ip), vehicle: saline with Tween-80
[6] = dose: 240.0 mg/kg/injection, schedule: Q01DX005 (ip), vehicle: saline with Tween-80
[7] = dose: 50.0 mg/kg/injection, schedule: Q01DX009 (ip), vehicle: saline
[8] = dose: 200.0 mg/kg/injection, schedule: Q01DX009 (ip), vehicle: saline
[9] = dose: 6.25 mg/kg/injection, schedule: Q01DX009 (ip), vehicle: saline with Tween-80
[10] = dose: 12.5 mg/kg/injection, schedule: Q01DX009 (ip), vehicle: saline with Tween-80
[11] = dose: 25.0 mg/kg/injection, schedule: Q01DX009 (ip), vehicle: saline with Tween-80
[12] = dose: 100.0 mg/kg/injection, schedule: Q01DX001 (ip), vehicle: saline
[13] = dose: 200.0 mg/kg/injection, schedule: Q01DX001 (ip), vehicle: saline
[14] = dose: 400.0 mg/kg/injection, schedule: Q01DX001 (ip), vehicle: saline
[15] = dose: 100.0 mg/kg/injection, schedule: Q01DX009 (ip), vehicle: saline with Tween-80
[16] = dose: 200.0 mg/kg/injection, schedule: Q01DX009 (ip), vehicle: saline with Tween-80
[17] = dose: 100.0 mg/kg/injection, schedule: Q01DX005 (ip), vehicle: Klucel (hydroxypropylcellulose) (HPC)
[18] = dose: 200.0 mg/kg/injection, schedule: Q01DX005 (ip), vehicle: Klucel (hydroxypropylcellulose) (HPC)

Measured: T/C

COc1ccc2c(CCN(/C=C/C(C)=O)C(C)=O)cn(C(C)=O)c2c1
inactive: dose: 12.5 mg/kg/injection, schedule: Q01DX005 (ip), vehicle: Klucel (hydroxypropylcellulose) (HPC) 109 % of control | [1] 104 % of control | [2] 100 % of control

O=C1NC(=O)C2(CCC(O)C2)c2cc[n+]([O-])cc21 (configuration not stated)
inactive: dose: 12.5 mg/kg/injection, schedule: Q01DX005 (ip), vehicle: saline 96 % of control | dose: 25.0 mg/kg/injection, schedule: Q01DX005 (ip), vehicle: saline 105 % of control | dose: 50.0 mg/kg/injection, schedule: Q01DX005 (ip), vehicle: saline 105 % of control | dose: 100.0 mg/kg/injection, schedule: Q01DX005 (ip), vehicle: saline 100 % of control

CNCCCC12CC(c3ccccc31)c1ccccc12
inactive: [3] 94 % of control

Cc1ccc(C(O)c2cnc(C)n2Cc2ccccc2)cc1 (configuration not stated)
inactive: [4] 100 % of control | [5] 98 % of control | [6] 92 % of control

O=C(Oc1ccc[nH]c1=O)C12CC3CC(CC(C3)C1)C2
inactive: [7] 101 % of control | dose: 100.0 mg/kg/injection, schedule: Q01DX009 (ip), vehicle: saline 100 % of control | [8] 98 % of control and 94 % of control | dose: 400.0 mg/kg/injection, schedule: Q01DX009 (ip), vehicle: saline 99 % of control and 93 % of control

CN(C(=O)NCCCl)C1=NC(O)(c2ccccc2)C(c2ccccc2)=N1 (configuration not stated)
inactive: dose: 100.0 mg/kg/injection, schedule: Q04DX002 (ip), vehicle: saline with Tween-80 106 % of control | dose: 200.0 mg/kg/injection, schedule: Q04DX002 (ip), vehicle: saline with Tween-80 113 % of control | dose: 400.0 mg/kg/injection, schedule: Q04DX002 (ip), vehicle: saline with Tween-80 112 % of control

Oc1ccccc1N=Cc1cccs1
inactive: dose: 50.0 mg/kg/injection, schedule: Q01DX009 (ip), vehicle: Klucel (hydroxypropylcellulose) (HPC) 109 % of control | dose: 100.0 mg/kg/injection, schedule: Q01DX009 (ip), vehicle: Klucel (hydroxypropylcellulose) (HPC) 105 % of control | dose: 200.0 mg/kg/injection, schedule: Q01DX009 (ip), vehicle: Klucel (hydroxypropylcellulose) (HPC) 124 % of control

O=C1NC(=O)c2cc(C(F)(F)F)ccc21
inactive: dose: 3.0 mg/kg/injection, schedule: Q01DX009 (ip), vehicle: saline with Tween-80 95 % of control | dose: 6.0 mg/kg/injection, schedule: Q01DX009 (ip), vehicle: saline with Tween-80 104 % of control | dose: 12.0 mg/kg/injection, schedule: Q01DX009 (ip), vehicle: saline with Tween-80 90 % of control

CCCCCCCCC1OC1CCCCCCCC(=O)O (configuration not stated)
inactive: dose: 3.13 mg/kg/injection, schedule: Q01DX009 (ip), vehicle: saline with Tween-80 112 % of control | [9] 100 % of control | [10] 103 % of control | [11] 95 % of control

c1ccc(-c2cnn3nnnc3n2)cc1
inactive: [12] 104 % of control | [13] 102 % of control | [14] 101 % of control

Oc1c(C(c2ccccc2)N2CCCCC2)ccc2ccccc12 (configuration not stated)
inactive: [3] 110 % of control | [15] 105 % of control | [16] 90 % of control

CNC(=O)CCCCCNC(C)=O
inactive: [2] 98 % of control | [17] 95 % of control | [18] 90 % of control | dose: 400.0 mg/kg/injection, schedule: Q01DX005 (ip), vehicle: Klucel (hydroxypropylcellulose) (HPC) 97 % of control

CCCCCCCCCCCCn1ccnc1
inactive: dose: 100.0 mg/kg/injection, schedule: Q04DX003 (ip), vehicle: saline with Tween-80 102 % of control | dose: 200.0 mg/kg/injection, schedule: Q04DX003 (ip), vehicle: saline with Tween-80 97 % of control

CCOC(=O)Nc1ccc(SCC2COC(Cn3ccnc3)(c3ccc(Cl)cc3Cl)O2)cc1 (configuration not stated)
inactive: dose: 12.5 mg/kg/injection, schedule: Q01DX001 (ip), vehicle: saline 104 % of control | dose: 25.0 mg/kg/injection, schedule: Q01DX001 (ip), vehicle: saline 107 % of control | dose: 50.0 mg/kg/injection, schedule: Q01DX001 (ip), vehicle: saline 110 % of control

[N-]=[N+]=NC1(N=[N+]=[N-])C(=O)c2cccc3c2N(CCC3)C1=O (configuration not stated)
inactive: [2] 92 % of control | [17] 114 % of control | [18] 88 % of control

S=C(Oc1ccccc1)Oc1ccccc1
inactive: [9] 95 % of control | [10] 91 % of control | [15] 93 % of control

c1ncc2[nH]cnc2n1
inactive: dose: 100.0 mg/kg/injection, schedule: Q01DX009 (ip), vehicle: saline sonified 100 % of control | dose: 100.0 mg/kg/injection, schedule: Q04DX003 (ip), vehicle: saline 104 % of control | dose: 200.0 mg/kg/injection, schedule: Q01DX009 (ip), vehicle: saline sonified 104 % of control | dose: 200.0 mg/kg/injection, schedule: Q04DX003 (ip), vehicle: saline 104 % of control | dose: 400.0 mg/kg/injection, schedule: Q01DX009 (ip), vehicle: saline sonified 100 % of control | dose: 400.0 mg/kg/injection, schedule: Q04DX003 (ip), vehicle: saline 104 % of control

O=[N+]([O-])C(Br)(CO)CCC(Br)(CO)[N+](=O)[O-] (configuration not stated)
inactive: dose: 6.25 mg/kg/injection, schedule: Q01DX001 (ip), vehicle: Klucel (hydroxypropylcellulose) (HPC) 111 % of control | dose: 12.5 mg/kg/injection, schedule: Q01DX001 (ip), vehicle: Klucel (hydroxypropylcellulose) (HPC) 104 % of control | dose: 25.0 mg/kg/injection, schedule: Q01DX001 (ip), vehicle: Klucel (hydroxypropylcellulose) (HPC) 107 % of control

C=CC(=NC(C)(C)C)Nc1ccccc1C#N
inactive: dose: 3.12 mg/kg/injection, schedule: Q01DX009 (ip), vehicle: saline with Tween-80 106 % of control | [9] 106 % of control | [10] 100 % of control and 117 % of control

CC(=O)Nc1ccc(C(=O)N/N=C/c2ccccc2O)cc1
inactive: dose: 6.25 mg/kg/injection, schedule: Q01DX009 (ip), vehicle: Klucel (hydroxypropylcellulose) (HPC) 90 % of control | dose: 12.5 mg/kg/injection, schedule: Q01DX009 (ip), vehicle: Klucel (hydroxypropylcellulose) (HPC) 93 % of control | dose: 25.0 mg/kg/injection, schedule: Q01DX009 (ip), vehicle: Klucel (hydroxypropylcellulose) (HPC) 88 % of control

CC(C)c1ccc(C(=O)C2C(=O)C=C(c3ccc(C(C)C)cc3)OC2=O)cc1 (configuration not stated)
inactive: [12] 105 % of control | [13] 108 % of control | [14] 118 % of control

c1ccc2c(NCC3CCNCC3)c3ccccc3nc2c1
inactive: dose: 25.0 mg/kg/injection, schedule: Q04DX002 (ip), vehicle: saline with Tween-80 124 % of control | dose: 50.0 mg/kg/injection, schedule: Q04DX002 (ip), vehicle: saline with Tween-80 112 % of control

COCC1N=C(COCc2ccccc2)OC1c1ccccc1 (configuration not stated)
inactive: [4] 100 % of control | [5] 95 % of control | [6] 100 % of control

N=C(N)S(=O)O
inactive: [11] 99 % of control | [3] 100 % of control | [7] 96 % of control | [15] 98 % of control | [16] 101 % of control | [8] 95 % of control

CC1(C)CC(C)(OC(=O)c2ccc(Cl)cc2)N=N1 (configuration not stated)
inactive: [10] 104 % of control | [11] 103 % of control | [3] 99 % of control | [15] 99 % of control | [16] 98 % of control

COC(=O)CCC1=CC(=O)C(OC)=CC1=O
inactive: [9] 110 % of control | [10] 97 % of control | [11] 99 % of control

Cc1ccc(O)c(C(=NCCN=C(c2ccccc2)c2cc(C)ccc2O)c2ccccc2)c1.[Cu]
inactive: [1] 98 % of control | [2] 98 % of control | [17] 96 % of control | [18] 90 % of control

Cc1nc2nc(N)nc(N)c2nc1Sc1ccc(Cl)cc1
inactive: dose: 25.0 mg/kg/injection, schedule: Q04DX003 (ip), vehicle: saline with Tween-80 94 % of control | dose: 50.0 mg/kg/injection, schedule: Q04DX003 (ip), vehicle: saline with Tween-80 90 % of control
